Consider one molecule from patent publication EP1095650A1, “Double phase time-controlled release system” (Universiteit Leiden, priority 1999, dated 2001).

The data set can be described thus: Dissolution / release profile of BAEE from the delivery system (USP XXIII dissolution paddle apparatus). The format is physicochemical. The note with it: PBS pH 7.2, 37±1°C, 100 rpm. As for the experimental part:
The dissolution of a coated and a non-coated delivery system according to the present invention was investigated by using the standard USP XXIII dissolution paddle apparatus. The paddle speed was 100 rpm and the dissolution medium was phosphate buffer solution (PBS) pH 7.2 at 37±1°C. PBS was prepared according to the method of USP XXIII. Three replicates for each sample were tested at specific interval times and their mean percent release was calculated.
Two release patterns of example 1, showing the release profiles of BAEE from the system with and without a gelatin enteric coating (capsule) are depicted in Figures 6 and 7, respectively.
Data are expressed as mean ± standard deviation (SD, n=6). (Standard USP XXIII dissolution apparatus is used with Phosphate Buffer Solution (PBS) pH = 7.2 as a dissolution medium. Temperature was 37±1°C and paddle speed was 100 rpm).
Data are expressed as mean ±SD (n=6). (Standard USP XXIII dissolution apparatus is used with PBS pH = 7.2 as a dissolution medium. Temperature was 37±1°C and paddle speed was 100 rpm).

Each structure is given as a SMILES string.

Take `CCOC(=O)[C@H](CCCN=C(N)N)NC(=O)c1ccccc1` [BAEE, N-α-benzoyl-L-arginine ethylester]: the lag time entry (system of Example 1 inserted in gelatin capsule and enteric-coated (Figure 7), compared with non-coated system) is reported as “increased”. Besides, the “amount of drug released after the lag time” value (system of Example 1 not inserted in gelatin capsule (Figure 6), within a short period of time) was “whole amount of drug is released”.
